# Results as given in PubChem BioAssay (NCI).
# Where “and” joins values, the source holds several entries; their conditions need not be identical. Identical values can stand only once.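 Dose response: 5 concentrations. Exposure: 48 h. Format: 96-well plates. Endpoint: linear interpolation; highest concentration if not reached. Abbreviation: GI50, concentration required for 50% inhibition of growth. The concentration for full growth arrest is given as TGI.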
# How the values were obtained:
# Experiment in all cases: inhibition of tumour cell growth, NCI panel, 48 h
# [1] = tested on: 786-0 renal
# [2] = tested on: A498 renal
# [3] = tested on: A549 NSCLC
# [4] = tested on: ACHN renal
# [5] = tested on: BT-549 breast
# [6] = tested on: CAKI-1 renal
# [7] = tested on: CCRF-CEM leukemia
# [8] = tested on: COLO 205 colon
# [9] = tested on: DU-145 prostate
# [10] = tested on: EKVX NSCLC
# [11] = tested on: HCC-2998 colon
# [12] = tested on: HCT-116 colon
# [13] = tested on: HCT-15 colon
# [14] = tested on: HL-60(TB) leukemia
# [15] = tested on: HOP-62 NSCLC
# [16] = tested on: HOP-92 NSCLC
# [17] = tested on: HS 578T breast
# [18] = tested on: HT29 colon
# [19] = tested on: IGROV1 ovarian
# [20] = tested on: K-562 leukemia
# [21] = tested on: KM12 colon
# [22] = tested on: LOX IMVI melanoma
# [23] = tested on: M14 melanoma
# [24] = tested on: MALME-3M melanoma
# [25] = tested on: MCF7 breast
# [26] = tested on: MDA-MB-231 breast
# [27] = tested on: MDA-MB-435
# [28] = tested on: MOLT-4 leukemia
# [29] = tested on: NCI-H226 lung
# [30] = tested on: NCI-H23 lung
# [31] = tested on: NCI-H460 lung
# [32] = tested on: NCI-H522 lung
# [33] = tested on: NCI/ADR-RES ovarian
# [34] = tested on: OVCAR-3 ovarian
# [35] = tested on: OVCAR-4 ovarian
# [36] = tested on: OVCAR-5 ovarian
# [37] = tested on: OVCAR-8 ovarian
# [38] = tested on: PC-3 prostate
# [39] = tested on: RPMI-8226 leukemia
# [40] = tested on: RXF 393 renal
# [41] = tested on: SF-268 CNS
# [42] = tested on: SF-295 CNS
# [43] = tested on: SF-539 CNS
# [44] = tested on: SK-MEL-2 melanoma
# [45] = tested on: SK-MEL-28 melanoma
# [46] = tested on: SK-MEL-5 melanoma
# [47] = tested on: SK-OV-3 ovarian
# [48] = tested on: SN12C renal
# [49] = tested on: SNB-19 CNS
# [50] = tested on: SR leukemia
# [51] = tested on: SW-620 colon
# [52] = tested on: T-47D breast
# [53] = tested on: TK-10 renal
# [54] = tested on: U251 CNS
# [55] = tested on: UACC-257 melanoma
# [56] = tested on: UACC-62 melanoma
# [57] = tested on: UO-31 renal
smiles,measurement,setting,value
CO/N=C/C=C\C(=O)N/C=C/C[C@H]1/C=C/[C@H](O)/C=C\C=C\c2cccc(O)c2C(=O)O1,GI50,[1],54 nM and 125 nM
same,TGI,[1],15600 nM and 4030 nM
same,GI50,[2],722 nM
same,TGI,[2],5420 nM
same,GI50,[3],111 nM and 82.2 nM
same,TGI,[3],> 100000 nM
same,GI50,[4],39 nM and 54.2 nM
same,TGI,[4],15700 nM and 15200 nM
same,GI50,[5],< 19.7 nM and 24.7 nM
same,TGI,[5],5960 nM and 32900 nM
same,GI50,[6],< 10 nM
same,GI50,[7],62.1 nM and 62.2 nM
same,TGI,[7],> 77000 nM
same,GI50,[8],26.6 nM and 32.6 nM
same,TGI,[8],16000 nM and 14100 nM
same,GI50,[9],81.6 nM and 41.3 nM
same,TGI,[9],> 54000 nM and 22900 nM
same,GI50,[10],189 nM and 467 nM
same,TGI,[10],> 100000 nM
same,GI50,[11],430 nM and 208 nM
same,TGI,[11],31000 nM and 7540 nM
same,GI50,[12],< 10 nM and 20.7 nM
same,TGI,[12],12800 nM and 12900 nM
same,GI50,[13],62.4 nM and 44.7 nM
same,TGI,[13],9700 nM and 7340 nM
same,GI50,[14],20.8 nM and 37.3 nM
same,GI50,[15],266 nM and 65.9 nM
same,GI50,[16],< 10 nM and 19 nM
same,TGI,[16],74.5 nM and 492 nM
same,GI50,[17],454 nM and 199 nM
same,TGI,[17],> 100000 nM
same,GI50,[18],< 10 nM and 39.5 nM
same,TGI,[18],11200 nM and > 33700 nM
same,GI50,[19],< 10 nM and 12.9 nM
same,TGI,[19],> 49000 nM and 30900 nM
same,GI50,[20],27.5 nM and 35.8 nM
same,TGI,[20],> 100000 nM
same,GI50,[21],40.7 nM and 52 nM
same,TGI,[21],17200 nM and 15100 nM
same,GI50,[22],< 10 nM
same,TGI,[22],16 nM
same,GI50,[23],< 10 nM and 15.2 nM
same,TGI,[23],119 nM and 136 nM
same,GI50,[24],114 nM and 89.9 nM
same,TGI,[24],5880 nM and 10600 nM
same,GI50,[25],99.7 nM and 58.1 nM
same,TGI,[25],> 100000 nM and 26700 nM
same,GI50,[26],< 10 nM
same,TGI,[26],6640 nM
same,GI50,[27],36.8 nM and 37 nM
same,TGI,[27],1960 nM and 482 nM
same,GI50,[28],43.9 nM and 79 nM
same,TGI,[28],14000 nM and 23500 nM
same,GI50,[29],829 nM and 1310 nM
same,TGI,[29],13300 nM and 25800 nM
same,GI50,[30],2650 nM and 463 nM
same,TGI,[30],> 100000 nM and 36100 nM
same,GI50,[31],36.4 nM and 58.3 nM
same,TGI,[31],11100 nM and 5340 nM
same,GI50,[32],17.6 nM and 31.1 nM
same,TGI,[32],14300 nM and 7120 nM
same,GI50,[33],139 nM and 77.1 nM
same,TGI,[33],> 100000 nM
same,GI50,[34],457 nM and 653 nM
same,TGI,[34],23800 nM and 27300 nM
same,GI50,[35],17300 nM and 2740 nM
same,TGI,[35],> 100000 nM
same,GI50,[36],< 11 nM and 32.6 nM
same,TGI,[36],14400 nM and > 54400 nM
same,GI50,[37],19.1 nM and 33 nM
same,TGI,[37],> 100000 nM
same,GI50,[38],94.6 nM and 47.7 nM
same,TGI,[38],81400 nM and > 54900 nM
same,GI50,[39],26.5 nM and 30.9 nM
same,TGI,[39],6800 nM and 2210 nM
same,GI50,[40],931 nM and 108 nM
same,TGI,[40],34500 nM and 12900 nM
same,GI50,[41],204 nM and 137 nM
same,TGI,[41],> 100000 nM and 33800 nM
same,GI50,[42],22.9 nM and 19.8 nM
same,TGI,[42],117 nM and 84.5 nM
same,GI50,[43],46 nM and 51.4 nM
same,TGI,[43],4200 nM and 1830 nM
same,GI50,[44],118 nM and 138 nM
same,TGI,[44],1060 nM and 1760 nM
same,GI50,[45],303 nM and 309 nM
same,TGI,[45],13400 nM and 8660 nM
same,GI50,[46],< 10 nM
same,TGI,[46],< 11.3 nM and 20.4 nM
same,TGI,[47],> 100000 nM
same,GI50,[48],< 17.6 nM and 16.5 nM
same,TGI,[48],> 72900 nM
same,GI50,[49],2810 nM and 3470 nM
same,TGI,[49],> 100000 nM
same,GI50,[50],< 10 nM
same,TGI,[50],13800 nM and > 100000 nM
same,GI50,[51],43.3 nM and 62.8 nM
same,TGI,[51],12400 nM and 11300 nM
same,GI50,[52],< 10 nM and 27.3 nM
same,TGI,[52],64700 nM and > 71700 nM
same,TGI,[53],45100 nM and > 100000 nM
same,GI50,[54],100 nM and 28.7 nM
same,TGI,[54],62100 nM and 14700 nM
same,GI50,[55],24.8 nM and 49.3 nM
same,TGI,[55],659 nM and 4170 nM
same,GI50,[56],< 14.8 nM and 22 nM
same,TGI,[56],79.5 nM and 60.5 nM
same,GI50,[57],61 nM and 92.5 nM
same,TGI,[57],455 nM and 1230 nM
